Among the data in US20020151534A1, “Antithrombotic compounds” (priority 2001, published 2002) are IC50 values, retold here.

The structures appear in SMILES notation.

The experiment concerns the target T1, human factor Xa (Homo sapiens, UniProt P00742).
T1 construct: released from the colourless chromogenic substrate by human factor Xa; purchased Roche
As to the kind of experiment: Inhibition of factor Xa, enzyme-kinetic measurement with chromogenic substrate. To be noted: substrate Chromozym X 200 μMol/l, pNA release at 405 nm, pH 8.0, 37° C. Format: biochemical. The method, then: Enzyme-kinetic measurement with chromogenic substrate. The quantity of anp-nitroaniline (pNA) released from the colourless chromogenic substrate by human factor Xa is determined photometrically at 405 nm. It is proportional to the activity of the enzyme used. The inhibition of the enzyme activity by the test substance I (in relation to the solvent control) is determined at various concentrations of test substance and from this the IC50 is calculated, as the concentration which inhibits the factor Xa used by 50%.
Tris(hydroxymethyl)-aminomethane buffer (100 mmol) and sodium chloride (150 mMol), pH 8.0
Factor Xa (Roche), spec. activity: 10 U/0.5 ml, final concentration: 0.175 U/ml for each reaction mixture
Substrate Chromozym X (Roche), final concentration: 200 μMol/l for each reaction mixture
10 μl of a 23.5-times concentrated starting solution of the test substance or solvent (control), 175 μl of tris(hydroxymethyl)-aminomethane buffer and 25 μl of a 1.65 U/ml Factor Xa working solution are incubated for 10 minutes at 37° C. After the addition of 25 μl of Chromozym X working solution ([…]) the sample is measured in a photometer (SpectraMax 250) at 405 nm for 150 seconds at 37° C.
1. Determining the maximum increase (deltaOD/minutes) over 3 measuring points.
2. Determining the % inhibition based on the solvent control.
3. Plotting a dosage/activity curve (% inhibition vs substance concentration).
4. Determining the IC50 by interpolating the X value (substance concentration) of the dosage/activity curve at Y=50% inhibition.

T1 sequence (P00742 235-488 limits assumed): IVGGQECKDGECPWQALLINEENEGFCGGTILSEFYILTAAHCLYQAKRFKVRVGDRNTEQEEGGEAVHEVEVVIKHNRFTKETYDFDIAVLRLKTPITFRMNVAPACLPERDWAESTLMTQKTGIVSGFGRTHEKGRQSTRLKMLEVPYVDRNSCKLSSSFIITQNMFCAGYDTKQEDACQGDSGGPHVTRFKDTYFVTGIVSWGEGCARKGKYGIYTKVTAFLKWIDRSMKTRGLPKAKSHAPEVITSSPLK
T1 sequence (P00742 41-179 partner limits assumed): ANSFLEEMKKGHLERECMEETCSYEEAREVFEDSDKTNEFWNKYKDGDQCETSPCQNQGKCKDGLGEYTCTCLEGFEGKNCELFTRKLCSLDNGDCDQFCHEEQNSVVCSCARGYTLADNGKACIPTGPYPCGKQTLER

`Cc1cc(C(=O)NC(CC(=O)O)c2cccc(C(=N)N)c2)ccc1C(=O)N1CCCC1` (centres unmarked) [(5)] came in with an IC50 of 0.031 µM.
The compound `N=C(N)c1ccc(O)c(CNC(=O)c2ccc(C(=O)N3CCCC3)c(Cl)c2)c1` [(4)] registered an IC50 of 0.01 µM.
Turning to `Cc1cc(C(=O)NCc2cc(C(=N)N)ccc2O)ccc1C(=O)N1CCCC1` [(2)], the IC50 is 0.014 µM.
In turn, `Cc1cc(NCCc2cc(C(=N)N)ccc2O)ccc1C(=O)N1CCCC1` [(1)] gave an IC50 of 0.084 µM.
In turn, `CCOC(=O)CCC(=O)N(c1ccc(C(=O)NCc2cc(C(=N)N)ccc2O)cc1C)C1CCCC1` [(3)] had an IC50 of 0.075 µM.

For orientation: IC50 means the concentration at which inhibition is half-maximal. The low end stands for higher potency, the high end for lower potency.
